Experimental data taken from article PMC9602571, “Discovery of a Dual SENP1 and SENP2 Inhibitor” (International Journal of Molecular Sciences, 2022).
Read-outs that look alike come from different tables or passages of the source.

Columns and labels:
Type in all cases: biochemical
SENP2 = target: T1, SENP2 (Homo sapiens, UniProt Q9HC62); assay: Fluorogenic SENP2 assay, SUMO1-AMC substrate; conditions: n = 2
T1 construct: Human recombinant catalytic domain expressed in E. coli; purchased Enzo BML-UW9765; host or cells: E. coli
T1 sequence (Q9HC62 396-560 limits assumed): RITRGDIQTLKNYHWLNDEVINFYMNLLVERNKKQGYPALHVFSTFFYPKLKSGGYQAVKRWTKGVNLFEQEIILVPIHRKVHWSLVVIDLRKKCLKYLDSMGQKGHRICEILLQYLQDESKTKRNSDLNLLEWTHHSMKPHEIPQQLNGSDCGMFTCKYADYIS
Description: The IC50 measurements were conducted at Reaction Biology Corporation, Malvern, PA, USA, with two replications using 10 concentrations starting at 200 μM with a three-fold dilution. Curve fits were performed where the enzyme activities at the highest concentration of compounds were less than 65%. UCH-L3 I was used as a control inhibitor. To SENP2 (Enzo Cat# BML-UW9765, Human recombinant catalytic domain expressed in E. coli.) in reaction buffer (50 mM HEPES, 150 mM NaCl, 0.5 mM EDTA, 1 mM DTT, pH 7.5, 0.01% CHAPS) was delivered the compound stock solution by acoustic technology (Echo550; nanoliter range) and subsequently incubated for 15 min at ambient temperature. The substrate SUMO1-AMC (R&D Systems Cat# UL-551-050, Lot# 07613314A, Fluorescence labeled full-length SUMO1 protein) was delivered to the well-plate to initiate the reaction. The enzyme activities were monitored (Ex/Em = 355/460 nm) as a time-course measurement of the increase in fluorescence signal from SUMO1-AMC for 90 min at ambient temperature. The data were analyzed by taking the slope (signal/time) of linear portion of measurement. The slope was calculated using Excel and the curve fits were performed using GraphPad Prism7 with a four-parameter least-squares fit. The final reaction conditions contained 0.015 nM SENP2 and 300 nM SUMO1/2 or 3-AMC.

SENP1 [1] = target: T2, SENP1 (Homo sapiens, UniProt Q9P0U3); assay: SENP1 endopeptidase activity with proSUMO3 (SDS gel); conditions: inhibitor 200 µM, proSUMO3 5 µM, 37 °C, 1 h
T2 construct: Human recombinant, His6-SENP1 Catalytic Domain; His6 (N); purchased Boston Biochem (Bio-Techne AG) E-700
T2 sequence (Q9P0U3 450-613 limits assumed): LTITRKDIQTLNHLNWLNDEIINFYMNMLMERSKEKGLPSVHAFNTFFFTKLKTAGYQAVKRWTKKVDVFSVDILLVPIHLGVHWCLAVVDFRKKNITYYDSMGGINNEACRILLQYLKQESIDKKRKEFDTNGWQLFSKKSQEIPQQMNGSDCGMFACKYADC
Description: Measurements were performed using six different inhibitor concentrations starting at 200 μM of 11 with three-fold dilution. Human recombinant, His6-SENP1 Catalytic Domain (Boston Biochem Cat# E-700, Bio-Techne AG, Zug, Switzerland) was prepared in reaction buffer (50 mM HEPES, 150 mM NaCl 0.5 mM EDTA, 1 mM DTT, pH 7.5, 0.01% CHAPS) as 555 nM solution. A 20 mM compound DMSO stock-solution (1.1 µL) was added to the freshly prepared 555 nM enzyme solution (98.9 µL). […] Then, 50 µM proSUMO3 (5 µL) was added to the freshly prepared enzyme inhibitor solution (45 µL) and incubated for 60 min at 37 °C and subsequently the reaction was stopped by adding 4 × Laemmli-Buffer (16.7 µL) and denaturing the protein at 100 °C for 30 min. Those solutions (10 µL) were loaded on a casted 15% sodium dodecyl sulfate polyacrylamide gel and separated on a Mini-PROTEAN Tetra Cell (Bio-Rad, Hercules, CA, USA). After SDS-PAGE gel electrophoresis separation, the gels were stained with staining solution Bio-Safe Coomassie Brilliant Blue G-250 (BioRad) for 60 min. De-staining was performed with 40% (v/v) methanol, 10% (v/v) glacial acetic acid, 50% (v/v) Milli-Q water until protein bands became visible.

SENP1 [2] = target: T2, SENP1; assay: Fluorogenic SENP1 assay, SUMO2-AMC substrate; conditions: n = 2
Description: Human recombinant, His6-SENP1 Catalytic Domain (Boston Biochem Cat# E-700, Bio-Techne AG, Zug, Switzerland) was prepared in reaction buffer (50 mM HEPES, 150 mM NaCl, 0.5 mM EDTA, 1 mM DTT, pH 7.5, 0.01% CHAPS). To this solution, a 20 mM or 50 mM inhibitor stock solution in DMSO was added and the mixture was incubated for 15 min at ambient temperature. […] The data were analyzed by taking the slope (signal/time) of the linear portion of measurement. The slope was calculated using Excel and the curve fits were performed using GraphPad Prism7 with a four-parameter least-squares fit. The final reaction conditions contained 0.02 nM SENP1 and 300 nM SUMO1/2 or 3-AMC).

SENP1 [3] = target: T2, SENP1; assay: Mode of inhibition study, SENP1 and SUMO1-AMC kinetic measurement
Description: A mode of inhibition study with 11 was performed by kinetic measurement with SENP1 and SUMO1-AMC employing five different substrate concentrations (Figure 4). The IC50 values […] slightly by lowering the SUMO1-AMC substrate concentration from 1000 nM to 62.5 nM, indicating a slight binding preference to the SUMO1-SENP1 complex (Figure 4A).
IC50 measurements were performed with at least two replications using eight concentrations starting at 200 μM and for the fragments at 500 μM with three-fold dilution. Human recombinant, His6-SENP1 Catalytic Domain (Boston Biochem Cat# E-700, Bio-Techne AG, Zug, Switzerland) was prepared in reaction buffer (50 mM HEPES, 150 mM NaCl, 0.5 mM EDTA, 1 mM DTT, pH 7.5, 0.01% CHAPS). To this solution, a 20 mM or 50 mM inhibitor stock solution in DMSO was added and the mixture was incubated for 15 min at ambient temperature. The substrate SUMO1/2 or 3-AMC (SUMO1-AMC; Boston Biochem Cat# UL-551; SUMO2-AMC; Boston Biochem Cat# UL-758; SUMO3-AMC; Boston Biochem Cat# UL-768; Bio-Techne AG, Zug, Switzerland) was delivered to a 96 well-plate to initiate the reaction. The enzyme activities were monitored (Ex/Em = 355/460 nm) as a time-course measurement of the increase in fluorescence signal from SUMO1/2 or 3-AMC for 60 min at 25 °C. The data were analyzed by taking the slope (signal/time) of the linear portion of measurement. The slope was calculated using Excel and the curve fits were performed using GraphPad Prism7 with a four-parameter least-squares fit. The final reaction conditions contained 0.02 nM SENP1 and 300 nM SUMO1/2 or 3-AMC).

IC50 (SENP2): 2.3 µM
inhibition of SENP1 endopeptidase activity (proSUMO3 maturation) (SENP1 [1]): full inhibition
IC50 (SENP1 [2]): 43 µM
alpha (mixed inhibition model) (SENP1 [3]; global Michaelis-Menten fit): 0.23
Ki (SENP1 [3]; global Michaelis-Menten fit, GraphPad Prism, read-out: KI (mixed inhibition model)): 10.6 µM
Ki (SENP1 [3]; global fit, unit inferred, read-out: Ki (Figure 4B)): 10.6 µM
IC50 (SENP1 [3]; substrate 62.5 nM, read-out: IC50 at SUMO1-AMC 62.5 nM): 6.65 µM
IC50 (SENP1 [3]; substrate 125 nM, read-out: IC50 at SUMO1-AMC 125 nM): 5.82 µM
IC50 (SENP1 [3]; substrate 250 nM, read-out: IC50 at SUMO1-AMC 250 nM): 4.72 µM
IC50 (SENP1 [3]; substrate 500 nM, read-out: IC50 at SUMO1-AMC 500 nM): 4.04 µM
IC50 (SENP1 [3]; substrate 1000 nM, read-out: IC50 at SUMO1-AMC 1000 nM): 3.15 µM
SMILES: O=C(Cn1nnc(-c2ccccc2)n1)N1c2ccccc2NC(=O)C12CCCC2 [Compound 11, 1′-[2-(5-Phenyl-2H-1,2,3,4-tetrazol-2-yl)acetyl]-3′,4′-dihydro-1′H-spiro[cyclopentane-1,2′-quinoxalin]-3′-one]
